In paper PMC12024154, “A Study of Antioxidant, Antihyperlipidemic, and Anti-Glycation Effects of Alkylsulfonic Acids with Quinobenzothiazinyl Substituents: In Vitro and In Silico Investigations” (Antioxidants, 2025):
Several values for one entry are separate records, joined by “and”; a condition that tells them apart may be missing. Equal values may be shown once. Marks after values point to notes of the source that are not given here.

Columns and labels:
BSA-glucose = BSA-glucose antiglycation assay; design: species or system bovine; conditions: 7 days, 37 °C, pH 7.4, n = 3; read-out: BSA-glucose glycation IC50
Experimental: The BSA-glucose assay is conducted according to the methodology outlined by Mridula et al.. […] The reaction mixture was thoroughly mixed and incubated for 5 min. Following incubation, 0.5 mL of sodium azide was added to each tube. The tubes underwent incubation at 37 °C in the absence of light for a duration of seven days. Aminoguanidine is used as a positive control. Following a seven-day incubation period, the samples were analyzed with the Omega microplate reader (BMG LABTECH, Ortenberg, Germany), measuring fluorescence intensity at an excitation wavelength of 370 nm and an emission wavelength of 440 nm. The experiment was conducted in triplicate.

[1] = system: differentiated 3T3-L1 adipocytes; assay: Intracellular ROS production (DCFH-DA, AAPH-stimulated); type: cell-based; conditions: 24 h treatment
Experimental: Differentiation of 3T3-L1 cells was performed within one week through culturing in MDI medium, which consisted of 0.5 mM 3-isobutyl-1-methylxanthine, 1 μM dexamethasone, and 1 μg/mL insulin, for 48 h in 10% FBS-DMEM. Subsequently, the cells were transferred to fresh 10% FBS and 90% DMEM supplemented with 1 μg/mL insulin.
On day 8 of differentiation, intracellular ROS levels in 3T3 L1 cells were assessed using the oxidation-sensitive fluorogenic probe 2′,7′-dichlorodihydrofluorescein-diacetate (DCFH-DA), following a method established by Forbes-Hernández et al., with minor modification. Post-differentiation, the cells were treated with the respective doses of the compounds for a period of 24 h. Following this, the cells underwent incubation with DCFH-DA (25 μM) at 37 °C for a duration of 30 min in the absence of light. Consequently, the cells were stimulated with 1 mM AAPH as a ROS initiator for a duration of 1 h. The density of light was measured using a spectrofluorometer with an excitation wavelength of 480 nm and an emission wavelength of 530 nm.

[2] = DPPH radical scavenging assay; conditions: average inhibition, concentration range 0.0245 to 0.268 μM, n = 3
Experimental: The DPPH (2,2-diphenyl-1-picrylhydrazyl) radical scavenging assay was conducted to evaluate the antioxidant activity of compounds 5–12 following the method outlined by Chong et al. with minor modifications. A 1 mL sample with a concentration range of 0.0245 to 0.268 μM was introduced to a 1 mL methanol solution of DPPH ([…]) and vortexed. Following a 20-min incubation at 25 °C, absorbance was assessed at 527 nm using a UV-vis spectrophotometer, with blank as reference. Ascorbic acid served as a positive control. The negative control consists of a setup without samples (ascorbic acid and synthetic compounds). The percentage of DPPH free radical inhibition was determined using Equation (1) provided below.
% of DPPH radical scavenging activity was calculated using the following equation:(1) AA%=100−[Abs sample−Abs blank100/Abs control] • Equation (1) where: • Abs control = absorbance of the control. • Abs sample = absorbance of the sample.

pancreatic lipase = target: T1, pancreatic lipase (Sus scrofa, UniProt P00591); assay: In vitro pancreatic lipase inhibition assay; type: biochemical; conditions: porcine pancreas powder, pNPB substrate, n = 3
T1 construct: The enzyme source utilized was porcine pancreas powder; from tissue; host or cells: porcine pancreas (powder)
T1 sequence (P00591 1-450): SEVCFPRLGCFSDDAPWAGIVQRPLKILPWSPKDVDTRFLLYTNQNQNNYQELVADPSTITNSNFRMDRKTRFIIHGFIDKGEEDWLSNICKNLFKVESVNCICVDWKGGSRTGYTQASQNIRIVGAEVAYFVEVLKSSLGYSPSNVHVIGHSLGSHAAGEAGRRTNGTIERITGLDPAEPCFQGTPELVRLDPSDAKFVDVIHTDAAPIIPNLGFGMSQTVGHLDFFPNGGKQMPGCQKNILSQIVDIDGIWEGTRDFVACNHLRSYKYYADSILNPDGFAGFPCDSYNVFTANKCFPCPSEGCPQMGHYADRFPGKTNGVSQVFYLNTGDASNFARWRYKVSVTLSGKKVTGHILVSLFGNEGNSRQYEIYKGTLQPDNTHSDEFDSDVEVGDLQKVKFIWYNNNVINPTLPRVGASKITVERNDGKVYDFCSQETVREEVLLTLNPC
Experimental: The pancreatic lipase inhibition assay is conducted following the method outlined by Ajayi et al. (2022) with minor modifications. The enzyme source utilized was porcine pancreas powder at a concentration of 0.1 mg·mL^−1 in Tris–HCl buffer, pH 8.0. In a 96-well plate, 50 μL of phosphate–buffer solution (pH 7.0), 50 μL of pNPB (500 μM), and 50 μL of test samples 5–12 with concentrations ranging from 0.0245 to 0.268 μM were pipetted and mixed thoroughly. Fifty microliters of pancreatic enzyme were added to the resultant mixture and incubated at room temperature for 30 min. The resulting yellow p-nitrophenol was measured spectrophotometrically at 405 nm. Control was conducted concurrently without the addition of a test sample. […] PL inhibition was determined using the following formula: PL inhibition (%) = [(Activity of control − activity of test)/activity of control] × 100. The IC50 is determined utilizing GraphPad 10 software (GraphPad Software, LLC, San Diego, CA, USA).

[3] = Chelating capacity (ferrozine) assay; conditions: 0.0245 to 0.268 μM
Experimental: Chelating capacity assay is conducted following the method outlined by Chong et al. with minor modifications. Samples of 0.1 mL with concentrations ranging from 0.0245 to 0.268 μM were combined with 0.5 mL of a […] and 0.2 mL of a 5 mM ferrozine solution. Then, a 10-min incubation at room temperature, absorbance was recorded at 562 nm using a blank solution in a 96-well plate reader. EDTA served as a positive control. The negative control consists of a sample devoid of any substances, including EDTA and synthetic compounds. The percentage of ferrous chelation was calculated using the Equation (1).

Row | IC50 (BSA-glucose) | IC50 (pancreatic lipase) | Compound | % ROS Generation ([1]; 0.02 μM) | % ROS Generation ([1]; 0.06 μM) | % ROS Generation ([1]; 0.1 μM) | % ROS Generation ([1]; 0.2 μM) | % ROS Generation ([1]; 0.25 μM) | DPPH mean inhibition [2] | Chelating activity [3]
1 | 4130 nM | 890 nM | O=S(=O)(O)CCCN1c2ccc(Cl)cc2Sc2cc3ccccc3nc21 [Compound 7, 3-(9-chloro[3,2-b]benzo[1,4]thiazin-6-yl)propane-1-sulfonic acid] | 143.18 ± 10.65% and 143.18 ± 10.65 ^a % | 113.48 ± 10.27 ^a % | 33.27 ± 6.16 ^b % | 15.63 ± 2.74 ^b % | 14.96 ± 1.25% and 14.96 ± 1.25 ^b % | 8.47% | 
2 |  |  | O=C1O[C@H]([C@@H](O)CO)C(O)=C1O [ascorbic acid, reference compound] |  |  |  |  |  | 54.24% | 
3 | 1800 nM | 566 nM | CSc1ccc2c(c1)Sc1cc3ccccc3nc1N2CCCCS(=O)(=O)O [Compound 12, 4-(9-methylthio[3,2-b]benzo[1,4]thiazin-6-yl)butane-1-sulfonic acid] | 119.82 ± 5.12% and 119.82 ± 5.12 ^a % | 102.85 ± 1.47 ^b % | 97.18 ± 2.61 ^b % | 80.38 ± 1.72 ^c % | 60.12 ± 1.74% and 60.12 ± 1.74 ^d % | 5.53% | 
4 |  |  | O=C(O)CN(CCN(CC(=O)O)CC(=O)O)CC(=O)O [EDTA] |  |  |  |  |  |  | increasing inhibitory action with increased concentration
5 | 1570 nM | 1240 nM | O=S(=O)(O)CCCN1c2ccc(F)cc2Sc2cc3ccccc3nc21 [Compound 6, 3-(9-fluoroquino[3,2-b]benzo[1,4]thiazin-6-yl)propane-1-sulfonic acid] | 137.15 ± 9.37 ^a % | 126.66 ± 2.43 ^a % | 88.31 ± 3.13 ^b % | 37.15 ± 9.37% and 69.68 ± 7.12 ^c % | 63.73 ± 1.04% and 63.73 ± 1.04 ^c % | 3.45% | 
6 | 1090 nM | 670 nM and 477 nM | O=S(=O)(O)CCCCN1c2ccccc2Sc2cc3ccccc3nc21 [Compound 9, 4-(quino[3,2-b]benzo[1,4]thiazin-6-yl)butane-1-sulfonic acid] | 169.62 ± 13.81% and 169.62 ± 13.81 ^a % | 151.45 ± 25.13 ^ab % | 151.54 ± 32.18 ^ab % | 61.36 ± 1.58 ^c % | 26.38 ± 1.73% and 26.38 ± 1.73 ^c % | 2.45% | 
7 | 1890 nM | 870 nM | O=S(=O)(O)CCCCN1c2ccc(Cl)cc2Sc2cc3ccccc3nc21 [Compound 11, 4-(9-chloro[3,2-b]benzo[1,4]thiazin-6-yl)butane-1-sulfonic acid] | 104.90 ± 5.3% and 104.90 ± 5.31 ^a % | 35.75 ± 11.03 ^c % | 46.64 ± 6.13 ^bc % | 75.96 ± 2.21 ^ab % | 57.18 ± 1.66% and 57.18 ± 1.66 ^bc % | 8.47% | 
8 | 2240 nM | 477 nM | O=S(=O)(O)CCCCN1c2ccc(F)cc2Sc2cc3ccccc3nc21 [Compound 10, 4-(9-fluoroquino[3,2-b]benzo[1,4]thiazin-6-yl)butane-1-sulfonic acid] | 103.85 ± 1.17% and 103.85 ± 1.17 ^a % | 74.74 ± 2.90 ^b % | 69.81 ± 5.23 ^b % | 52.56 ± 4.14 ^c % | 47.16 ± 3.71% and 47.16 ± 3.71 ^c % | 6.21% | 
9 | 790 nM | 1570 nM | O=S(=O)(O)CCCN1c2ccccc2Sc2cc3ccccc3nc21 [Compound 5, 3-(quino[3,2-b]benzo[1,4]thiazin-6-yl)propane-1-sulfonic acid] | 208.69 ± 13.07% and 208.69 ± 13.07 ^a % | 142.87 ± 15.43 ^b % | 76.83 ± 0.0 ^c % | 39.72 ± 6.30 ^c % | 39.24 ± 0.0 ^c % | 5.49% | 
10 | 980 nM | 1320 nM | CSc1ccc2c(c1)Sc1cc3ccccc3nc1N2CCCS(=O)(=O)O [Compound 8, 3-(9-methylthio[3,2-b]benzo[1,4]thiazin-6-yl)propane-1-sulfonic acid] | 149.62 ± 6.71% and 149.62 ± 6.71 ^a % | 101.04 ± 7.69 ^b % | 71.47 ± 2.98 ^c % | 62.94 ± 4.59 ^c % | 50.89 ± 2.85% and 50.89 ± 2.85 ^d % | 7.36% | 

Row | Compound | IC50 (BSA-glucose) | IC50 (pancreatic lipase) | % ROS Generation ([1]; 0.02 μM) | % ROS Generation ([1]; 0.06 μM) | % ROS Generation ([1]; 0.1 μM) | % ROS Generation ([1]; 0.2 μM) | % ROS Generation ([1]; 0.25 μM) | DPPH mean inhibition [2] | Chelating activity [3]
11 | N=C(N)NN [aminoguanidine, reference compound] | 310 nM |  |  |  |  |  |  |  | 
